Experimental data as given in ChEMBL document CHEMBL1144924, “Calculation of the binding affinity of beta-secretase inhibitors using the linear interaction energy method” (J Med Chem, 2003).

Molecular target: Beta-secretase 1 (Homo sapiens, UniProt P56817)
Assay: Binding affinity for human brain memapsin 2 beta-Secretase (BACE)

Sequence of Beta-secretase 1 (P56817 whole entry): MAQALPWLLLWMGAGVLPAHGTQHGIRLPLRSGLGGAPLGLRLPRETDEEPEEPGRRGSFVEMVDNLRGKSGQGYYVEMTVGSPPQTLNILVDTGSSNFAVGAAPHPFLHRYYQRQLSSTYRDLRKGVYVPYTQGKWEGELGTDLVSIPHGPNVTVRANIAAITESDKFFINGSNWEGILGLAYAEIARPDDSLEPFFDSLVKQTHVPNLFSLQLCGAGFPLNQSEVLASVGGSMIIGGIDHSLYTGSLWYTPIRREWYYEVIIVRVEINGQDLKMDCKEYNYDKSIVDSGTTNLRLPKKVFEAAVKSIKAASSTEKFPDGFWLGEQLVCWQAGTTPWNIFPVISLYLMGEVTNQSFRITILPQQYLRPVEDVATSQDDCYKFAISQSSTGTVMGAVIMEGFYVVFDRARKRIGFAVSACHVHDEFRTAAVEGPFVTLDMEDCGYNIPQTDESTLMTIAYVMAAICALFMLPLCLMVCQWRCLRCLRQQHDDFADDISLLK

| Ki [nM] | Compound |
| --- | --- |
| 2.5 | CSCCC(NC(=O)[C@@H](NC(=O)OC(C)(C)C)C(C)C)C(=O)N[C@@H](CC(C)C)C(O)CC(C)C(=O)NC(C(=O)NCc1ccccc1)C(C)C (some centres undefined) |
| 9.4 | CC(C)C[C@H](NC(=O)C(CS(C)(=O)=O)NC(=O)[C@@H](NC(=O)OC(C)(C)C)C(C)C)C(O)CC(C)C(=O)NC(C(=O)NCc1ccccc1)C(C)C (some centres undefined) |
| 1130 | CC(C)C[C@H](NC(=O)[C@H](CS(C)(=O)=O)NC(=O)OC(C)(C)C)C(O)CC(C)C(=O)NC(C(=O)NCc1ccccc1)C(C)C (some centres undefined) |
| 5.9 | CC(C)C[C@H](NC(=O)C(CC(N)=O)NC(=O)[C@@H](NC(=O)OC(C)(C)C)C(C)C)C(O)CC(C)C(=O)NC(C(=O)NCc1ccccc1)C(C)C (some centres undefined) |
| 3130 | CC(C)C[C@H](NC(=O)[C@H](CC(N)=O)NC(=O)OC(C)(C)C)C(O)CC(C)C(=O)NC(C(=O)NCc1ccccc1)C(C)C (some centres undefined) |
| 22400 | CC(C)C[C@H](NC(=O)[C@H](CC(N)=O)NC(=O)OC(C)(C)C)C(O)CC(C)C(=O)NC(C)C(=O)NCc1ccccc1 (some centres undefined) |
| 50.1 | CSCC(NC(=O)[C@@H](NC(=O)OC(C)(C)C)C(C)C)C(=O)N[C@@H](CC(C)C)C(O)CC(C)C(=O)NC(C(=O)NCc1ccccc1)C(C)C (some centres undefined) |
| 61.4 | CC(C)C[C@H](NC(=O)C(CC(N)=O)NC(=O)[C@@H](NC(=O)OC(C)(C)C)C(C)C)C(O)CC(C)C(=O)NC(C)C(=O)NCc1ccccc1 (some centres undefined) |
| 5810 | CSCCC(NC(=O)OC(C)(C)C)C(=O)N[C@@H](CC(C)C)C(O)CC(C)C(=O)NC(C(=O)NCc1ccccc1)C(C)C (some centres undefined) |
